Test results as given in US7767649B2, “Amino acid conjugates providing for sustained systemic concentrations of GABA analogues” (XenoPort, Inc., priority 2002, dated 2010).

Test system: PEPT2
Experiment: Electrogenic transport in Xenopus oocytes expressing PEPT2 (two-electrode electrophysiology)
Type: cell-based
Conditions: compound at 1 mM, normalized to saturating glycyl-sarcosine (1 mM)
Method: Rat and human PEPT1 and PEPT2 expressing CHO cell lines were prepared as described in PCT Application WO01/20331. Gabapentin-containing dipeptides were evaluated for interaction with the peptide transporters using a radiolabeled substrate uptake assay in a competitive inhibition format, as described in PCT Application WO01/20331. Transport-induced currents were also measured in Xenopus oocytes transfected with rat and human PEPT1 and PEPT2.
Rat and human PEPT1 and PEPT2 transporter cDNAs were subcloned into a modified pGEM plasmid that contains 5′ and 3′ untranslated sequences from the Xenopus β-actin gene. These sequences increase RNA stability and protein expression. Plasmid cDNA was linearized and used as template for in vitro transcription (Epicentre Technologies transcription kit, 4:1 methylated:non-methylated GTP).
Xenopus laevis frogs were anesthetized by immersion in Tricaine ([…] in deionized water) for 15 min. Oocytes were removed and digested in frog ringer solution (90 mM NaCl, 2 mM KCl, 1 mM MgCl2, 10 mM NaHEPES, pH 7.45, no CaCl2) with 1 mg/mL collagenase (Worthington Type 3) for 80-100 min with shaking. […]
Transport currents were measured 2-14 days after injection, using a standard two-electrode electrophysiology set-up (Geneclamp 500 amplifier, Digidata 1320/PCLAMP software and ADInstruments hardware and software were used for signal acquisition). […]

## C[C@H](NC(=O)[C@@H](N)CNC(=O)CC1(CN)CCCCC1)C(=O)O [N-β-(Gabapentinyl)-L-Diaminopropionyl-L-Alanine]
  induced current as % of Imax: 45%
